# How the values were obtained:
# KRas^G12S = molecular target: T1, KRas^G12S (Homo sapiens, UniProt P01116, G12S); assay: KRas binding assay (TR-FRET tracer displacement), KRas G12S; details: TR-FRET tracer displacement, KRas G12S
# T1 construct: Biotinylated KRas (corresponding to amino acids 1-169, produced at Accelegan Inc.); biotin (biotinylated); purchased Accelegan Inc
# KRas^G12V = molecular target: T2, KRas^G12V (Homo sapiens, UniProt P01116, G12V); assay: KRas binding assay (TR-FRET tracer displacement), KRas G12V
# T2 construct: Biotinylated KRas (corresponding to amino acids 1-169, produced at Accelegan Inc.); biotin (biotinylated); purchased Accelegan Inc
# T2 sequence (P01116 1-169 isoform P01116-2 G12V): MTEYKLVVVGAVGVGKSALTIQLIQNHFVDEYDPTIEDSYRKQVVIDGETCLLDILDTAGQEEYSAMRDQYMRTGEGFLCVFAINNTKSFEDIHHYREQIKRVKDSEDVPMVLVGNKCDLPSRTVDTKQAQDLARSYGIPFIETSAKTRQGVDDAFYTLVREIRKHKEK
# KRas^G12C = molecular target: T3, KRas^G12C (Homo sapiens, UniProt P01116, G12C); assay: KRas binding assay (TR-FRET tracer displacement), KRas G12C; details: TR-FRET tracer displacement, KRas G12C
# T3 construct: Biotinylated KRas (corresponding to amino acids 1-169, produced at Accelegan Inc.); biotin (biotinylated); purchased Accelegan Inc
# T3 sequence (P01116 1-169 isoform P01116-2 G12C): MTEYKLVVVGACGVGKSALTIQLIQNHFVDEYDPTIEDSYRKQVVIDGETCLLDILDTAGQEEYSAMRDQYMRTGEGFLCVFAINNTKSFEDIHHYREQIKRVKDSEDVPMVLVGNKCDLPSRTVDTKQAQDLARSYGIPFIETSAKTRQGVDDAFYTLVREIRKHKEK
# KRas^G12R = molecular target: T4, KRas^G12R (Homo sapiens, UniProt P01116, G12R); assay: KRas binding assay (TR-FRET tracer displacement), KRas G12R
# T4 construct: Biotinylated KRas (corresponding to amino acids 1-169, produced at Accelegan Inc.); biotin (biotinylated); purchased Accelegan Inc
# T4 sequence (P01116 1-169 isoform P01116-2 G12R): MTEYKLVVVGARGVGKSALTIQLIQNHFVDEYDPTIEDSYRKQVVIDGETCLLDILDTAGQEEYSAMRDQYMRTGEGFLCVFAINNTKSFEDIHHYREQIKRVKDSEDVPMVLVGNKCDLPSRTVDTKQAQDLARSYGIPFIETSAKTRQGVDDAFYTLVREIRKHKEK
# KRas^G12D = molecular target: T5, KRas^G12D (Homo sapiens, UniProt P01116, G12D); assay: KRas binding assay (TR-FRET tracer displacement), KRas G12D
# T5 construct: Biotinylated KRas (corresponding to amino acids 1-169, produced at Accelegan Inc.); biotin (biotinylated); purchased Accelegan Inc
# T5 sequence (P01116 1-169 isoform P01116-2 G12D): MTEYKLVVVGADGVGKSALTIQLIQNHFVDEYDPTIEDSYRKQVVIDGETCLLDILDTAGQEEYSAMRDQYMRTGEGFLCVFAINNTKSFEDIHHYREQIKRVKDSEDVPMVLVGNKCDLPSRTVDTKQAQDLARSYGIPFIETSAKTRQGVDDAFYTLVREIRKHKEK
# [1] = test system: KRas-mediated phosphorylation of ERK in HCT116 cells; assay: Inhibition of KRas-mediated phosphorylation of ERK (Cisbio HTRF pERK), HCT116 cells; assay type: cell-based; details: Homo sapiens, HCT-116, 3 h, single point, 100 nM compound, 3 hrs
# How it was run: (§1)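 HTRF readout of phospho-ERK in cell lysates after 3 hrs of compound exposure. Dosing: 10 uM top, 3-fold steps, 10 doses, final DMSO 0.8%. Min control: 0.2 uM Trametinib. Lysis ran 40 mins at 4° C, and antibody detection 2 hrs at room temperature.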
# KRas^G13D = molecular target: T6, KRas^G13D (Homo sapiens, UniProt P01116, G13D); assay: KRas binding assay (TR-FRET tracer displacement), KRas G13D; details: TR-FRET tracer displacement, KRas G13D
# T6 construct: Biotinylated KRas (corresponding to amino acids 1-169, produced at Accelegan Inc.); biotin (biotinylated); purchased Accelegan Inc
# T6 sequence (P01116 1-169 isoform P01116-2 G13D): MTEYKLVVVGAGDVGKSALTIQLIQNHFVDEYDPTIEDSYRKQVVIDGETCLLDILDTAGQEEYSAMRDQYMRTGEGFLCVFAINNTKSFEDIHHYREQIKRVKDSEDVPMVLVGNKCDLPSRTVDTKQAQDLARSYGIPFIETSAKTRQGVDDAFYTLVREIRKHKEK
# KRas^WT = molecular target: T7, KRas^WT (Homo sapiens, UniProt P01116); assay: KRas binding assay (TR-FRET tracer displacement), KRas WT; details: TR-FRET tracer displacement, KRas WT
# T7 construct: Biotinylated KRas (corresponding to amino acids 1-169, produced at Accelegan Inc.); biotin (biotinylated); purchased Accelegan Inc
# T7 sequence (P01116 1-169 isoform P01116-2): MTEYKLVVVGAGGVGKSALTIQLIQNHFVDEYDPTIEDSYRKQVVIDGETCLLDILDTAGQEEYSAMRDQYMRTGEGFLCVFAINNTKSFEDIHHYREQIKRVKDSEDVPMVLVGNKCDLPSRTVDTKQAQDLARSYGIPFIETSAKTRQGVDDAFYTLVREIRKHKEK
# [2] = test system: KRas-mediated phosphorylation of ERK in H727 cells; assay: Inhibition of KRas-mediated phosphorylation of ERK (Cisbio HTRF pERK), H727 cells; assay type: cell-based; details: Homo sapiens; for IC50: NCI-H727, H727 cells, HTRF pERK; for inhibition at 0.1 µM: NCI-H727, 3 h, single point, 100 nM compound, 3 hrs, H727 cells
# How it was run: (§2)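 Signal read by HTRF (d2/Cryptate antibody pair, 2 hr room-temperature incubation on lysate). Cells: 6,000 per well, 3 hr compound exposure. Titration: 10 uM highest, 3-fold, 10 points.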
# [3] = test system: KRas-mediated phosphorylation of ERK in H460 cells; assay: Inhibition of KRas-mediated phosphorylation of ERK (Cisbio HTRF pERK), H460 cells; assay type: cell-based; details: Homo sapiens, NCI-H460, 3 h, single point, 100 nM compound, 3 hrs
# How it was run: as §2
# [4] = test system: KRas-mediated phosphorylation of ERK in AsPC-1 cells; assay: Inhibition of KRas-mediated phosphorylation of ERK (Cisbio HTRF pERK), AsPC-1 cells; assay type: cell-based; details: Homo sapiens; for IC50: ASPC1, AsPC-1 cells, HTRF pERK; for inhibition at 0.1 µM: ASPC1, 3 h, single point, 100 nM compound, 3 hrs, AsPC-1 cells
# How it was run: as §2
# KRas^Q61H = molecular target: T8, KRas^Q61H (Homo sapiens, UniProt P01116, Q61H); assay: KRas binding assay (TR-FRET tracer displacement), KRas Q61H; details: TR-FRET tracer displacement, KRas Q61H
# T8 construct: Biotinylated KRas (corresponding to amino acids 1-169, produced at Accelegan Inc.); biotin (biotinylated); purchased Accelegan Inc
# T8 sequence (P01116 1-169 isoform P01116-2 Q61H): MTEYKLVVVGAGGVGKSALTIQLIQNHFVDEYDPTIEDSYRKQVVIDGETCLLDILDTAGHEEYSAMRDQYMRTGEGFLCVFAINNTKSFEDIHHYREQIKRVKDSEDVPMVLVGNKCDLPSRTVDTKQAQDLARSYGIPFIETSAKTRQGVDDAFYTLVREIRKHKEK
# KRas^G12A = molecular target: T9, KRas^G12A (Homo sapiens, UniProt P01116, G12A); assay: KRas binding assay (TR-FRET tracer displacement), KRas G12A; details: TR-FRET tracer displacement, KRas G12A
# T9 construct: Biotinylated KRas (corresponding to amino acids 1-169, produced at Accelegan Inc.); biotin (biotinylated); purchased Accelegan Inc
# T9 sequence (P01116 1-169 isoform P01116-2 G12A): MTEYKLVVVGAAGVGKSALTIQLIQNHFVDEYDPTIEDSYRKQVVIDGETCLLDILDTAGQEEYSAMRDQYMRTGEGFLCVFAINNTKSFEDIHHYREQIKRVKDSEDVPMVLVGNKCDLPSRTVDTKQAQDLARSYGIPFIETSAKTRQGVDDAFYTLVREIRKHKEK
# [5] = test system: KRas-mediated phosphorylation of ERK in H358 cells; assay: Inhibition of KRas-mediated phosphorylation of ERK (Cisbio HTRF pERK), H358 cells; assay type: cell-based; details: Homo sapiens, NCI-H358, 3 h, single point, 100 nM compound, 3 hrs
# How it was run: as §2
# [6] = test system: KRas-mediated phosphorylation of ERK in A549 cells; assay: Inhibition of KRas-mediated phosphorylation of ERK (Cisbio HTRF pERK), A549 cells; assay type: cell-based; details: Homo sapiens, A549, 3 h, single point, 100 nM compound, 3 hrs
# How it was run: as §1
# T1 sequence (P01116 1-169 isoform P01116-2 G12S): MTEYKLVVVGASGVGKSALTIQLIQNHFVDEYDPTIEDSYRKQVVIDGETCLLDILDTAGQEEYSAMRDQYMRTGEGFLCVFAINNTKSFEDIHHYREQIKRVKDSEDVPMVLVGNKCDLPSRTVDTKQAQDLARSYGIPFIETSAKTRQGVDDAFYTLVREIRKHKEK
IC50 (KRas^G12S) [nM],IC50 (KRas^G12V) [nM],IC50 (KRas^G12C) [nM],IC50 (KRas^G12R) [nM],IC50 (KRas^G12D) [nM],IC50 (KRas^G13D) [nM],IC50 (KRas^WT) [nM],IC50 [2] [nM],IC50 [4] [nM],IC50 (KRas^Q61H) [nM],IC50 (KRas^G12A) [nM],Compound,inhibition at 0.1 µM [1] [%],inhibition at 0.1 µM [3] [%],inhibition at 0.1 µM [5] [%],inhibition at 0.1 µM [6] [%],inhibition at 0.1 µM [2] [%],inhibition at 0.1 µM [4] [%]
64,59,106,68,226,107,117,1340,2260,166,82,"Cc1ccc2c(-c3ncc4c(N5C[C@@H]6C[C@H](C5)[C@H](O)C6)nc(OC[C@@]56CCCN5C[C@H](F)C6)nc4c3F)cc(O)cc2c1 [Example 746, (1R,5R,6R)-3-(8-fluoro-2-(((2R,7aS)-2-fluorotetrahydro-1H-pyrrolizin-7a(5H)-yl)methoxy)-7-(3-hydroxy-6-methylnaphthalen-1-yl)pyrido[4,3-d]pyrimidin-4-yl)-3-azabicyclo[3.2.1]octan-6-ol]",10,2,-17,-19,–,–
91,93,165,139,372,172,167,3830,5220,185,136,"Oc1cc2ccccc2c(-c2ncc3c(N4C[C@@H]5C[C@H](C4)[C@H](O)C5)nc(OC[C@@]45CCCN4C[C@H](F)C5)nc3c2F)c1F [Example 751, (1R,5R,6R)-3-(8-fluoro-7-(2-fluoro-3-hydroxynaphthalen-1-yl)-2-(((2R,7aS)-2-fluorohexahydro-1H-pyrrolizin-7a-yl)methoxy)pyrido[4,3-d]pyrimidin-4-yl)-3-azabicyclo[3.2.1]octan-6-ol]",–,–,-17,-10,-50,-2
43,42,46,101,12,238,141,> 10000,9840,203,82,"CN(C)C(=O)c1cc2n(n1)CCCN(c1nc(OCC34CCCN3CCC4)nc3c(F)c(-c4c5ccccc5cc5[nH]ncc45)ncc13)C2 [Example 757, 5-(7-(1H-benzo[f]indazol-4-yl)-8-fluoro-2-((hexahydro-1H-pyrrolizin-7a-yl)methoxy)pyrido[4,3-d]pyrimidin-4-yl)-N,N-dimethyl-5,6,7,8-tetrahydro-4H-pyrazolo[1,5-a][1,4]diazepine-2-carboxamide]",–,–,10,2,–,–
100,83,144,132,268,146,156,2910,5910,164,139,"Oc1cc2ccccc2c(-c2ncc3c(N4C[C@@H]5C[C@H](C4)[C@H](O)C5)nc(OC[C@@]45CCCN4C[C@H](F)C5)nc3c2F)c1Cl [Example 765, (1R,5R,6R)-3-(7-(2-chloro-3-hydroxynaphthalen-1-yl)-8-fluoro-2-(((2R,7aS)-2-fluorohexahydro-1H-pyrrolizin-7a-yl)methoxy)pyrido[4,3-d]pyrimidin-4-yl)-3-azabicyclo[3.2.1]octan-6-ol]",–,–,-5,28,-13,-6
414,727,635,778,2450,551,754,> 10000,8950,891,716,"Oc1cc(-c2ncc3c(N4C[C@@H]5C[C@H](C4)[C@H](O)C5)nc(OC[C@@]45CCCN4C[C@H](F)C5)nc3c2F)c2ccccc2c1Br [Example 781, (1R,5R,6R)-3-(7-(4-bromo-3-hydroxynaphthalen-1-yl)-8-fluoro-2-(((2R,7aS)-2-fluorohexahydro-1H-pyrrolizin-7a-yl)methoxy)pyrido[4,3-d]pyrimidin-4-yl)-3-azabicyclo[3.2.1]octan-6-ol]",–,–,10,-24,–,–

# Reference: patent US20260015350A1, “AZAQUINAZOLINE PAN-KRAS INHIBITORS” (Mirati Therapeutics, Inc., priority 2022, published 2026)
